Target: T1, hTDO2 (Homo sapiens, UniProt P48775)
T1 construct: endogenous in cells; host or cells: A172 human brain glioblastoma cells (ATCC CRL-1620)
Experiment: Cellular assay for TDO2 activity determination in A172 cells
Type: cell-based
Conditions: human glioblastoma A172 cells naturally expressing hTDO2; overnight incubation; kynurenine by absorbance at 480 nm
Procedure: The compounds of formula I inhibit the activity of human TDO2 in cells that constitutively express TDO2, such as A172 cells. A172 is a cell line derived from human brain glioblastoma cells. The cells are available from the American Type Culture Collection (ATCC®) as CRL-1620™.
The assay (adapted from Pilotte L et al., Proc Natl Acad Sci USA, 2012, 109(7), 2497-502) was performed in 96-well flat bottom plates seeded with human glioblastoma A172 cells, naturally expressing hTDO2 (prepared as described in Tilman et al., Mol Cancer, 2007, 17(6), 80), at a concentration of 1.25×10^4 cells/well in a final volume of 200 μL. To determine TDO, the cells were incubated overnight at 37° C. at 5% CO2 in IMDM (Invitrogen) supplemented with 2% FBS and 2% penicillin/streptomycin in the presence of the compounds of the present invention, at different concentrations.
The plates were then centrifuged 5 min at 1000 rpm, and 100 μL of the supernatant were collected in a conical plate, 30 μL of TCA 30% were added and a further centrifuged at 3000×g for 10 minutes. 100 μL of the supernatant were collected in a flat bottomed plate and 100 μL of 2% (w/v) 4-(dimethylamino)-benzaldehyde in acetic acid and incubated for 5 min at room temperature. Kynurenine concentrations were determined by measuring the absorbance at 480 nm. A standard curve was made with pure kynurenine. The TDO activity was measured as described above using ten serial concentrations of the compounds of the present invention. Data were fitted using the Prism™ software (GraphPad Software, Inc.) using standard parameters.
The biological activity of representative compounds in human brain glioblastoma cells as determined in the above-referenced assay is summarized in the following table: […]

T1 sequence (P48775 whole entry): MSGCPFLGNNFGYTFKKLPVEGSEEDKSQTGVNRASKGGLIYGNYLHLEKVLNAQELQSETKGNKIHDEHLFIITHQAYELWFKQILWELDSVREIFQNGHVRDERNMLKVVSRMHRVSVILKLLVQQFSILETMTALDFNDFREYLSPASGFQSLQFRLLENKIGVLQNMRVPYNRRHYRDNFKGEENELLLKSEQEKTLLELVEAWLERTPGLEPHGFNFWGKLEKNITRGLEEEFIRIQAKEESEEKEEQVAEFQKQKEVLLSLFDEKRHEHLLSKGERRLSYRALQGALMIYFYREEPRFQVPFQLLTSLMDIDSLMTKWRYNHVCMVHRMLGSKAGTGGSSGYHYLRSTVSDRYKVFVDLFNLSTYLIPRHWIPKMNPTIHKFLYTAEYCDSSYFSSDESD

| Compound | IC50 [µM] |
| --- | --- |
| CC1c2cc(-c3c[nH]c4cc(F)ccc34)ccc2S(=O)(=O)N1CCC(=O)N1CCNCC1 (single isomer, unassigned; (-)) [Example 50, (−)3-(5-(6-fluoro-1H-indol-3-yl)-3-methyl-1,1-dioxidobenzo[d]isothiazol-2(3H)-yl)-1-(piperazin-1-yl)propan-1-one] | 0.336 |
| O=S1(=O)c2ccc(-c3c[nH]c4cc(F)ccc34)cc2CN1C1CCNCC1 [Example 36, 5-(6-fluoro-1H-indol-3-yl)-2-(piperidin-4-yl)-2,3-dihydrobenzo[d]isothiazole 1,1-dioxide] | 0.192 |
| NC(=O)CCN1Cc2cc(-c3c[nH]c4cc(F)ccc34)ccc2S1(=O)=O [Example 44, 3-(5-(6-fluoro-1H-indol-3-yl)-1,1-dioxidobenzo[d]isothiazol-2(3H)-yl)propanamide] | 0.255 |
| O=S1(=O)c2ccc(-c3c[nH]c4cc(F)ccc34)cc2CN1C[C@H](O)CO [Example 34, (S)-2-(2,3-dihydroxypropyl)-5-(6-fluoro-1H-indol-3-yl)-2,3-dihydrobenzo[d]isothiazole 1,1-dioxide] | 0.103 |
| CC1c2cc(-c3c[nH]c4cc(F)ccc34)ccc2S(=O)(=O)N1CC[S+](C)[O-] (single isomer, unassigned; (-)) [Example 57, (−)-5-(6-fluoro-1H-indol-3-yl)-3-methyl-2-(2-(methylsulfinyl)ethyl)-2,3-dihydrobenzo[d]isothiazole 1,1-dioxide] | 0.061 |
| CC1c2cc(-c3c[nH]c4cc(F)ccc34)ccc2S(=O)(=O)N1CCS(N)(=O)=O (single isomer, unassigned; (+)) [Example 61, (+)-2-(5-(6-fluoro-1H-indol-3-yl)-3-methyl-1,1-dioxidobenzo[d]isothiazol-2(3H)-yl)ethane-1-sulfonamide] | 0.309 |
| CC1c2cc(-c3c[nH]c4cc(F)ccc34)ccc2S(=O)(=O)N1CCN1CCOC1=O (single isomer, unassigned; (-)) [Example 70, (−)-3-(2-(5-(6-fluoro-1H-indol-3-yl)-3-methyl-1,1-dioxidobenzo[d]isothiazol-2(3H)-yl)ethyl)oxazolidin-2-one] | 0.05 |
| CC(=O)NCC1NS(=O)(=O)c2ccc(-c3c[nH]c4cc(F)ccc34)cc21 (single isomer, unassigned; (+)) [Example 24, (+)-N-((5-(6-fluoro-1H-indol-3-yl)-1,1-dioxido-2,3-dihydrobenzo[d]isothiazol-3-yl)methyl)acetamide] | 0.255 |
| CCCC1NS(=O)(=O)c2ccc(-c3c[nH]c4cc(F)ccc34)cc21 (single isomer, unassigned; (-)) [Example 7, (−)-5-(6-fluoro-1H-indol-3-yl)-3-propyl-2,3-dihydrobenzo[d]isothiazole 1,1-dioxide] | 1.45 |
| CC1c2cc(-c3c[nH]c4cc(F)ccc34)ccc2S(=O)(=O)N1CCO (single isomer, unassigned; (-)) [Example 64, (−)-5-(6-fluoro-1H-indol-3-yl)-2-(2-hydroxyethyl)-3-methyl-2,3-dihydrobenzo[d]isothiazole 1,1-dioxide] | 0.322 |
| CC1(C)NS(=O)(=O)c2ccc(-c3c[nH]c4cc(F)ccc34)cc21 [Example 5, 5-(6-fluoro-1H-indol-3-yl)-3,3-dimethyl-2,3-dihydrobenzo[d]isothiazole 1,1-dioxide] | 0.096 |
| CC(=O)N1CCC(N2C(C)c3cc(-c4c[nH]c5cc(F)ccc45)ccc3S2(=O)=O)CC1 (single isomer, unassigned; (+)) [Example 71, (+)-1-(4-(5-(6-fluoro-1H-indol-3-yl)-3-methyl-1,1-dioxidobenzo[d]isothiazol-2(3H)-yl)piperidin-1-yl)ethanone] | 0.342 |

Second part, the molecule after the results:

| IC50 [µM] | Compound |
| --- | --- |
| 0.239 | CC1c2cc(-c3c[nH]c4cc(F)ccc34)ccc2S(=O)(=O)N1CC(=O)N(C)C (single isomer, unassigned; (+)) [Example 114, (+) 2-(5-(6-fluoro-1H-indol-3-yl)-3-methyl-1,1-dioxidobenzo[d]isothiazol-2(3H)-yl)-N,N-dimethylacetamide] |
| 0.473 | CC1c2cc(-c3c[nH]c4cc(F)ccc34)ccc2S(=O)(=O)N1C[C@]1(C)CCC(=O)N1 (single isomer, unassigned; (+)) [Example 81] |
| 0.18 | CNC(=O)C(O)CN1C(C)c2cc(-c3c[nH]c4cc(F)ccc34)ccc2S1(=O)=O (single isomer, unassigned; (+)) [Example 99, (+)-3-(5-(6-fluoro-1H-indol-3-yl)-3-methyl-1,1-dioxidobenzo[d]isothiazol-2(3H)-yl)-2-hydroxy-N-methylpropanamide] |
| 0.039 | CC1c2cc(-c3c[nH]c4cc(F)ccc34)ccc2S(=O)(=O)N1C[C@@H](O)CO (single isomer, unassigned; (+)) [Example 94] |
| 0.507 | CNC(=O)C(CN1C(C)c2cc(-c3c[nH]c4cc(F)ccc34)ccc2S1(=O)=O)OC (single isomer, unassigned; (-)) [Example 106, (−)-3-(5-(6-fluoro-1H-indol-3-yl)-3-methyl-1,1-dioxidobenzo[d]isothiazol-2(3H)-yl)-2-methoxy-N-methylpropanamide] |
| 0.068 | CC1c2cc(-c3c[nH]c4cc(F)ccc34)ccc2S(=O)(=O)N1CC1(C)COC(=O)N1 (single isomer, unassigned; (-)) [Example 88, (−)-4-((5-(6-fluoro-1H-indol-3-yl)-3-methyl-1,1-dioxidobenzo[d]isothiazol-2(3H)-yl)methyl)-4-methyloxazolidin-2-one] |
| 0.03 | CC1c2cc(-c3c[nH]c4cc(F)ccc34)ccc2S(=O)(=O)N1C[C@H](O)CO (single isomer, unassigned; (+)) [Example 96] |
| 0.265 | CNC(=O)C(C)N1C(C)c2cc(-c3c[nH]c4cc(F)ccc34)ccc2S1(=O)=O (single isomer, unassigned; (-)) [Example 148, (−)-2-(5-(6-fluoro-1H-indol-3-yl)-3-methyl-1,1-dioxidobenzo[d]isothiazol-2(3H)-yl)-N-methylpropanamide] |
| 0.049 | CC(=O)N1CCC(N2C(C)c3cc(-c4c[nH]c5cc(F)ccc45)ccc3S2(=O)=O)C1 (single isomer, unassigned; (-)) [Example 75, (−)-1-(3-(5-(6-fluoro-1H-indol-3-yl)-3-methyl-1,1-dioxidobenzo[d]isothiazol-2(3H)-yl)pyrrolidin-1-yl)ethanone] |
| 0.033 | CNC(=O)C(O)CN1C(C)c2cc(-c3c[nH]c4cc(F)ccc34)ccc2S1(=O)=O (single isomer, unassigned; (+)) [Example 97, (+)-3-(5-(6-fluoro-1H-indol-3-yl)-3-methyl-1,1-dioxidobenzo[d]isothiazol-2(3H)-yl)-2-hydroxy-N-methylpropanamide] |
| 0.066 | CNCC1NS(=O)(=O)c2ccc(-c3c[nH]c4cc(F)ccc34)cc21 (single isomer, unassigned) [Example 137, 5-(6-fluoro-1H-indol-3-yl)-3-((methylamino)methyl)-2,3-dihydrobenzo[d]isothiazole 1,1-dioxide] |
| 0.308 | CC1c2cc(-c3c[nH]c4cc(F)ccc34)ccc2S(=O)(=O)N1CCN1CCOCC1 (single isomer, unassigned; (-)) [Example 117, (−)-5-(6-fluoro-1H-indol-3-yl)-3-methyl-2-(2-morpholinoethyl)-2,3-dihydrobenzo[d]isothiazole 1,1-dioxide] |
| 0.358 | CC1c2cc(-c3c[nH]c4cc(F)ccc34)ccc2S(=O)(=O)N1CC1(C)COC(=O)N1 (single isomer, unassigned; (+)) [Example 90, (+)-4-((5-(6-fluoro-1H-indol-3-yl)-3-methyl-1,1-dioxidobenzo[d]isothiazol-2(3H)-yl)methyl)-4-methyloxazolidin-2-one] |
| 0.045 | CNC(=O)CN1C(C)c2cc(-c3c[nH]c4cc(F)ccc34)ccc2S1(=O)=O (single isomer, unassigned; (-)) [Example 111, (−)-2-(5-(6-fluoro-1H-indol-3-yl)-3-methyl-1,1-dioxidobenzo[d]isothiazol-2(3H)-yl)-N-methylacetamide] |
| 0.077 | CC1c2cc(-c3c[nH]c4cc(F)ccc34)ccc2S(=O)(=O)N1C1CNC(=O)C1 (single isomer, unassigned; (+)) [Example 126, (+)-4-(5-(6-fluoro-1H-indol-3-yl)-3-methyl-1,1-dioxidobenzo[d]isothiazol-2(3H)-yl)pyrrolidin-2-one] |
| 0.501 | CC1c2cc(-c3c[nH]c4cc(F)ccc34)ccc2S(=O)(=O)N1C1CNC(=O)C1 (single isomer, unassigned; (+)) [Example 123, (+)4-(5-(6-fluoro-1H-indol-3-yl)-3-methyl-1,1-dioxidobenzo[d]isothiazol-2(3H)-yl)pyrrolidin-2-one] |
| 0.124 | O=S1(=O)c2ccc(-c3c[nH]c4cc(F)ccc34)cc2C(CO)N1CC(O)CO (single isomer, unassigned; (-)) [Example 142, (−)-2-(2,3-dihydroxypropyl)-5-(6-fluoro-1H-indol-3-yl)-3-(hydroxymethyl)-2,3-dihydrobenzo[d]isothiazole 1,1-dioxide] |
